Experimental data taken from US8158821B2, “Crystal of 5-aminolevulinic acid phosphate and process for producing the same” (priority 2006, dated 2012).

Tests used:
[1] = Test on moisture absorption resistance (change in mass on standing at 25° C. and 90% RH); type: physicochemical; settings: for ratio of change in mass: 25° C., 90% RH, 1 g solid, phosphate
Method: With regard to 5-aminolevulinic acid phosphate, moisture absorption resistance was evaluated by weighing out 1 g of each of the powder obtained by a conventional method (the method described in Example 1 of WO2005/100300 pamphlet) and the crystal obtained in Example 1, allowing it to stand under conditions of 25° C. and 90% RH, subsequently measuring mass after the passage of each period of time, and calculating a ratio of change in mass.

[2] = Thermal stability test (increase in PDPA content on heating, by liquid chromatography); type: physicochemical; settings: for Increase in PDPA concentration in solid: heating time 96 hr, phosphate
Method: With regard to 5-aminolevulinic acid phosphate, 1 g of each of the powder obtained by a conventional method (the method described in Example 1 of WO2005/100300 pamphlet) and the crystal obtained in Example 1 was weighed out and allowed to stand under each condition shown in Table 3. The amount of 2,5-pyrazinedipropionic acid (PDPA), which is an impurity generated by heating and a compound formed by dimerization of 5-aminolevulinic acid molecules, was measured by liquid chromatography. An increase in the content of PDPA in 5-aminolevulinic acid phosphate was calculated and thermal stability as a substance was evaluated.
Analytical conditions for liquid chromatography: separation column: μBondasphere C18 5μ 100 Å manufactured by Waters, eluent: a mixture of 2% aqueous acetic acid solution and methanol in a volume ratio of 90/10, flow rate: 1.0 mL/min, injection amount of sample: 50 μl, column temperature: 40° C., detector: UV detector (276 nm).

| SMILES | ratio of change in mass ([1]; time passed 1 hr) | ratio of change in mass ([1]; time passed 3 hr) | ratio of change in mass ([1]; time passed 5 hr) | ratio of change in mass ([1]; time passed 6 hr) | ratio of change in mass ([1]; time passed 7 hr) | ratio of change in mass ([1]; time passed 24 hr) | moisture absorption resistance (in words) ([1]; as compared with the conventional powder, Table 2) | thermal stability (in words) ([2]; as compared with the conventional powder, Table 3) | Increase in PDPA concentration in solid ([2]; heating temperature 30° C.) | Increase in PDPA concentration in solid ([2]; heating temperature 60° C.) |
| --- | --- | --- | --- | --- | --- | --- | --- | --- | --- | --- |
| NCC(=O)CCC(=O)O.O=P(O)(O)O [Crystal, 5-aminolevulinic acid phosphate] | +0.05% | +0.06% | +0.09% | +0.08% | +0.09% | +0.4% | excellent in moisture absorption resistance | excellent in thermal stability | +0 ppm | −0 ppm |
| NCC(=O)CCC(=O)O.O=P(O)(O)O [Powder, 5-aminolevulinic acid phosphate] | +6% | +11% | +14% | +16% | +17% | +21% |  |  | +10 ppm | +302 ppm |
